Assay: Storage stability at room temperature of rocuronium bromide samples (related substances by HPLC)
Format: physicochemical
Conditions: for Impurity A, substances involved (HPLC) / Impurity C, substances involved (HPLC) / Total impurities, substances involved (HPLC) / Single unknown impurity, substances involved (HPLC): room temperature storage

## C=CC[N+]1([C@H]2C[C@H]3[C@@H]4CC[C@H]5C[C@H](O)[C@@H](N6CCOCC6)C[C@]5(C)[C@H]4CC[C@]3(C)[C@H]2OC(C)=O)CCCC1 [rocuronium bromide]
Moisture 4% or more, storage period of about 10 days at room temperature
  hydrolyzed impurities after storage (versus USP33 limits): out of limits
Moisture controlled to about 0.5%, storage period of one month at room temperature
  levels of impurities after storage: substantially unchanged
Purified by the method of the invention, moisture 4% or less, preferably 0.5% or less, one month at room temperature
  level of impurities after storage: substantially unchanged
Sample moisture 0.5%, Day 0
  Impurity A, substances involved (HPLC): 0.02%
  Impurity C, substances involved (HPLC): 0.06%
  Total impurities, substances involved (HPLC): 0.08%
Sample moisture 0.5%, Day 10
  Impurity A, substances involved (HPLC): 0.02%
  Impurity C, substances involved (HPLC): 0.06%
  Total impurities, substances involved (HPLC): 0.08%
Sample moisture 0.5%, Day 20
  Impurity A, substances involved (HPLC): 0.03%
  Impurity C, substances involved (HPLC): 0.06%
  Total impurities, substances involved (HPLC): 0.09%
Sample moisture 0.5%, Day 30
  Impurity A, substances involved (HPLC): 0.03%
  Impurity C, substances involved (HPLC): 0.06%
  Total impurities, substances involved (HPLC): 0.09%
Sample moisture 4.5%, Day 0
  Impurity A, substances involved (HPLC): 0.02%
  Impurity C, substances involved (HPLC): 0.06%
  Total impurities, substances involved (HPLC): 0.08%
Sample moisture 4.5%, Day 10
  Impurity A, substances involved (HPLC): 0.25%
  Impurity C, substances involved (HPLC): 0.36%
  Single unknown impurity, substances involved (HPLC): 0.12%
  Total impurities, substances involved (HPLC): 0.73%
Sample moisture 4.5%, Day 20
  Impurity A, substances involved (HPLC): 0.30%
  Impurity C, substances involved (HPLC): 0.40%
  Single unknown impurity, substances involved (HPLC): 0.20%
  Total impurities, substances involved (HPLC): 0.90%
Sample moisture 4.5%, Day 30
  Impurity A, substances involved (HPLC): 0.35%
  Impurity C, substances involved (HPLC): 0.50%
  Single unknown impurity, substances involved (HPLC): 0.20%
  Total impurities, substances involved (HPLC): 1.05%
